Measurements as given in ChEMBL document CHEMBL4732263 (Bioorg Med Chem, 2021).
In brackets after ≈: the same amount, converted by molar mass.

What was measured:
[1] = Apparent half life in Balb/C mouse at 2.6 mg/kg, iv up to 24 hrs by LC-MS analysis; format: ADME, organism-based; conditions: in vivo, read-out: t1/2(app) (converted)
[2] = Plasma clearance in Balb/C mouse at 2.6 mg/kg, iv up to 24 hrs by LC-MS analysis; format: ADME, organism-based
[3] = Volume of distribution at steady state in Balb/C mouse plasma at 2.6 mg/kg, iv up to 24 hrs by LC-MS analysis; format: ADME, organism-based; conditions: read-out: Vdss
[4] = AUC(0 to infinity) in Balb/C mouse plasma at 2.6 mg/kg, iv up to 24 hrs by LC-MS analysis; format: ADME, organism-based; parameters: route intravenous, dose 2.6 mg/kg, time <=24
[5] = Ratio of drug level in blood to plasma in Balb/C mouse plasma at 2.6 mg/kg, iv up to 24 hrs by LC-MS analysis; format: ADME, organism-based; conditions: blood and plasma
[6] = Clearance in Balb/C mouse blood at 2.6 mg/kg, iv up to 24 hrs by LC-MS analysis; format: ADME, organism-based; conditions: whole blood
[7] = Volume of distribution at steady state in Balb/C mouse blood at 2.6 mg/kg, iv up to 24 hrs by LC-MS analysis; format: ADME, organism-based; conditions: whole blood, read-out: Vdss
[8] = Half life in Sprague-Dawley rat at 3.9 mg/kg, iv up to 24 hrs by LC-MS analysis; format: ADME, organism-based; conditions: in vivo
[9] = Plasma clearance in Sprague-Dawley rat at 3.9 mg/kg, iv up to 24 hrs by LC-MS analysis; format: ADME, organism-based
[10] = Volume of distribution at steady state in Sprague-Dawley rat plasma at 3.9 mg/kg, iv up to 24 hrs by LC-MS analysis; format: ADME, organism-based; conditions: read-out: Vdss
[11] = AUC(0 to infinity) in Sprague-Dawley rat plasma at 3.9 mg/kg, iv up to 24 hrs by LC-MS analysis; format: ADME, organism-based; parameters: route intravenous, dose 3.9 mg/kg, time <=24
[12] = Ratio of drug level in blood to plasma in Sprague-Dawley rat at 3.9 mg/kg, iv up to 24 hrs by LC-MS analysis by LC-MS analysis; format: ADME, organism-based; conditions: whole blood and plasma
[13] = Clearance in Sprague-Dawley rat blood at 3.9 mg/kg, iv up to 24 hrs by LC-MS analysis; format: ADME, organism-based; conditions: whole blood
[14] = Volume of distribution at steady state in Sprague-Dawley rat blood at 3.9 mg/kg, iv up to 24 hrs by LC-MS analysis; format: ADME, organism-based; conditions: whole blood, read-out: Vdss
[15] = Drug excretion in Sprague-Dawley rat urine at 3.9 mg/kg, iv up to 24 hrs by LC-MS analysis; format: ADME, organism-based; conditions: read-out: Drug excretion
[16] = Clearance in Sprague-Dawley rat renal blood at 3.9 mg/kg, iv up to 24 hrs by LC-MS analysis; format: ADME, organism-based; conditions: whole blood
[17] = Drug metabolism in Sprague-Dawley rat at 3.9 mg/kg, iv by LC-MS analysis; format: ADME, organism-based; conditions: in vivo
[18] = molecular target: Voltage-gated inwardly rectifying potassium channel KCNH2 (Homo sapiens, UniProt Q12809)
Chain of Voltage-gated inwardly rectifying potassium channel KCNH2 (Q12809 whole entry): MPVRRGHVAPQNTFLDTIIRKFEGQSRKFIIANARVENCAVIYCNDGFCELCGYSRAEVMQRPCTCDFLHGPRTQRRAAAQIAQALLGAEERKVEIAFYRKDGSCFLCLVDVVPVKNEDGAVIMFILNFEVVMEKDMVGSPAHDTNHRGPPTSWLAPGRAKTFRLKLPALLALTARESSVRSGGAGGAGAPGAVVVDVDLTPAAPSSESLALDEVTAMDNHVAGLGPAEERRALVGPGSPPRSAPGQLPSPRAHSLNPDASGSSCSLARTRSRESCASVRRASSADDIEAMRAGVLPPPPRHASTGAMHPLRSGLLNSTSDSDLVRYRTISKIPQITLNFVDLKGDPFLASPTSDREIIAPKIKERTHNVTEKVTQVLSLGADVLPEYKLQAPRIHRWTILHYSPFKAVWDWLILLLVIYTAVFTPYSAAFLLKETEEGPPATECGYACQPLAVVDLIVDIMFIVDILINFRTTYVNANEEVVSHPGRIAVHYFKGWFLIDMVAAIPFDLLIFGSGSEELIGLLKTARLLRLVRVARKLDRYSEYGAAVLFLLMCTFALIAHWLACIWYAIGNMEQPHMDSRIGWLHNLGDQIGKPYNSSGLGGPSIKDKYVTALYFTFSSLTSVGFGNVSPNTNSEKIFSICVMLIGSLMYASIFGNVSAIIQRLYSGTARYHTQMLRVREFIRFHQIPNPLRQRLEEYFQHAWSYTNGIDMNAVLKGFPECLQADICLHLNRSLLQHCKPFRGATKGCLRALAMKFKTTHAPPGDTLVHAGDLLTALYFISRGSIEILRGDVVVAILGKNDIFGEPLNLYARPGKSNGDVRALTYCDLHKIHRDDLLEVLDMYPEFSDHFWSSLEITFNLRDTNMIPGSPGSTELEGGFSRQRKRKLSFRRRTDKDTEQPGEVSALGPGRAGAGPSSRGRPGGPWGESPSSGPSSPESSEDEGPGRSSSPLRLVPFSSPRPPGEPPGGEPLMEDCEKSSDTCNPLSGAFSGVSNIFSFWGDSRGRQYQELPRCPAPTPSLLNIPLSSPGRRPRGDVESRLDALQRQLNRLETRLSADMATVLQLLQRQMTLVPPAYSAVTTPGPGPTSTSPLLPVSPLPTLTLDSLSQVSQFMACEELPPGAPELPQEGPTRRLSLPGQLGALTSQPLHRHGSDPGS

[19] = molecular target: Sodium channel protein type 5 subunit alpha (Homo sapiens, UniProt Q14524)
Chain of Sodium channel protein type 5 subunit alpha (Q14524 whole entry): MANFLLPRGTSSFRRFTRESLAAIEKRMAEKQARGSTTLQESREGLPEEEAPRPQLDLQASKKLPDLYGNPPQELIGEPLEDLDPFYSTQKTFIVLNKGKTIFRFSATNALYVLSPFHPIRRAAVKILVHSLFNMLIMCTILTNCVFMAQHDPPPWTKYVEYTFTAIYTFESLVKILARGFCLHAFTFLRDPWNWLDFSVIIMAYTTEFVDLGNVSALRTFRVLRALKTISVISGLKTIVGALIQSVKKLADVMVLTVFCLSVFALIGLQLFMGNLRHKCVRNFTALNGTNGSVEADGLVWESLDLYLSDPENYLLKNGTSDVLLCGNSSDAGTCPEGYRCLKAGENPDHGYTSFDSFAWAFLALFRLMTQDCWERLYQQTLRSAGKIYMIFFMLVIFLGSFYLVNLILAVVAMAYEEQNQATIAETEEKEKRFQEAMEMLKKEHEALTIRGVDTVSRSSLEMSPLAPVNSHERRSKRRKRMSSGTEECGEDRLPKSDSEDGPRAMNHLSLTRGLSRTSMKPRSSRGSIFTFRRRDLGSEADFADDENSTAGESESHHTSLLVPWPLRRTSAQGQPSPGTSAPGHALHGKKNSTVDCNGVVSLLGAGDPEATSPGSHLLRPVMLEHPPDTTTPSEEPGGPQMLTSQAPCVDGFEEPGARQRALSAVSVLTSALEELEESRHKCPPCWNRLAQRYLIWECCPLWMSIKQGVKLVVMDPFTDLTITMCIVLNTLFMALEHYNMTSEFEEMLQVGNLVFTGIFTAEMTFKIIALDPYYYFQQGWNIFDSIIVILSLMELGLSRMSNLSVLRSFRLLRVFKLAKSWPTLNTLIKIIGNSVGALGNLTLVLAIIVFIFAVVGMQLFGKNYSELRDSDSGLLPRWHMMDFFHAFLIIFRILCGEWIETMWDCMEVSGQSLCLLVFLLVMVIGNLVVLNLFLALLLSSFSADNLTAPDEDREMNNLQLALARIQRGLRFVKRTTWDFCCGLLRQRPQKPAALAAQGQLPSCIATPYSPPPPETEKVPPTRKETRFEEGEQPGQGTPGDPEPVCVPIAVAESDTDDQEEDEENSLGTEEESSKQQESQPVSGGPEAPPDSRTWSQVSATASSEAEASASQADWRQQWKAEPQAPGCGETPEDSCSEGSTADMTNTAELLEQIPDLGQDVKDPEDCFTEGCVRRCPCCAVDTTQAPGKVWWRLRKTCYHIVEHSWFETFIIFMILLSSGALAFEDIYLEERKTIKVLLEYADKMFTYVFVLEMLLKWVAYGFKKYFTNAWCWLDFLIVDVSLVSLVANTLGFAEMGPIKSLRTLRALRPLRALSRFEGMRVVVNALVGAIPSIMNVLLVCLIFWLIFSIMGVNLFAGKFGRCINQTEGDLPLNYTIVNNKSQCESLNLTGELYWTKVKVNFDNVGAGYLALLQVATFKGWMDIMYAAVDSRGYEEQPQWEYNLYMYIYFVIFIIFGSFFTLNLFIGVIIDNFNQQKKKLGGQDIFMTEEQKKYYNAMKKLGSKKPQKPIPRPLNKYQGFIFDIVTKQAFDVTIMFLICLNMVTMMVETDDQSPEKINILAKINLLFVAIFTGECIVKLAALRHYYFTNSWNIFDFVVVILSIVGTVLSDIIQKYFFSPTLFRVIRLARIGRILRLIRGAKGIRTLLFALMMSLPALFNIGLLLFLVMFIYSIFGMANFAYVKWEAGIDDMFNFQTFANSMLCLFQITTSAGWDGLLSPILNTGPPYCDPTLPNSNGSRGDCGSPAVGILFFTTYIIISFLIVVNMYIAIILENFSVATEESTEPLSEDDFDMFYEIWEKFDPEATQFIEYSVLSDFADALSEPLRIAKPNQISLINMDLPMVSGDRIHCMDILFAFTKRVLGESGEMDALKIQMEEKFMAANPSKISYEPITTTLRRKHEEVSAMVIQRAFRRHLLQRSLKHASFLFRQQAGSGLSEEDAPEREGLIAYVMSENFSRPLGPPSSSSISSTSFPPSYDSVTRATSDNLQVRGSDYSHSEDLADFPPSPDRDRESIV

[20] = octanol/water, pH 7.4
[21] = human, microsomes, 1 h, 1 µM
[22] = mouse, microsomes, 1 h, 1 µM
[23] = mouse, blood, 2 h; at 1 µg/mL
cells = conditions: Homo sapiens, HEK293, 10 min
in vivo = conditions: Balb/C, mouse, po, at 1.9 to 3.5 mg/kg
physchem [24] = conditions: HCl, pH 2, pH 2
physchem [25] = conditions: PBS, pH 6.5, pH 6.5
in vitro [26] = conditions: human, liver microsomes
in vitro [27] = conditions: human, liver microsomes; remark: listed apart in the source
in vitro [28] = conditions: mouse, liver microsomes
in vitro [29] = conditions: mouse, liver microsomes; remark: listed apart in the source
in vitro [30] = conditions: Balb/C, mouse, plasma; at 1 µg/mL
in vitro [31] = conditions: Balb/C, mouse, plasma; at 1 µg/mL; remark: listed apart in the source
in vitro [32] = conditions: human, Caco-2
in vitro [33] = conditions: human, Caco-2; remark: listed apart in the source
in vitro [34] = conditions: human, Caco-2; remark: listed apart in the source
in vitro [35] = conditions: human, Caco-2; remark: listed apart in the source
in vitro [36] = conditions: human, Caco-2; remark: listed apart in the source
[37] = Apparent half life in Balb/C mouse at 2.5 mg/kg, iv up to 24 hrs by LC-MS analysis; format: ADME, organism-based; conditions: in vivo, read-out: t1/2(app) (converted)
[38] = Plasma clearance in Balb/C mouse at 2.5 mg/kg, iv up to 24 hrs by LC-MS analysis; format: ADME, organism-based
[39] = Volume of distribution at steady state in Balb/C mouse plasma at 2.5 mg/kg, iv up to 24 hrs by LC-MS analysis; format: ADME, organism-based; conditions: read-out: Vdss
[40] = AUC(0 to infinity) in Balb/C mouse plasma at 2.5 mg/kg, iv up to 24 hrs by LC-MS analysis; format: ADME, organism-based; parameters: route intravenous, dose 2.5 mg/kg, time <=24
[41] = Ratio of drug level in blood to plasma in Balb/C mouse plasma at 2.5 mg/kg, iv up to 24 hrs by LC-MS analysis; format: ADME, organism-based; conditions: whole blood and plasma
[42] = Clearance in Balb/C mouse blood at 2.5 mg/kg, iv up to 24 hrs by LC-MS analysis; format: ADME, organism-based; conditions: whole blood
[43] = Volume of distribution at steady state in Balb/C mouse blood at 2.5 mg/kg, iv up to 24 hrs by LC-MS analysis; format: ADME, organism-based; conditions: whole blood, read-out: Vdss
[44] = Half life in Sprague-Dawley rat at 2.5 mg/kg, iv up to 24 hrs by LC-MS analysis; format: ADME, organism-based; conditions: in vivo
[45] = Plasma clearance in Sprague-Dawley rat at 2.5 mg/kg, iv up to 24 hrs by LC-MS analysis; format: ADME, organism-based
[46] = Volume of distribution at steady state in Sprague-Dawley rat plasma at 2.5 mg/kg, iv up to 24 hrs by LC-MS analysis; format: ADME, organism-based; conditions: read-out: Vdss
[47] = AUC(0 to infinity) in Sprague-Dawley rat plasma at 2.5 mg/kg, iv up to 24 hrs by LC-MS analysis; format: ADME, organism-based; parameters: route intravenous, dose 2.5 mg/kg, time <=24
[48] = Ratio of drug level in blood to plasma in Sprague-Dawley rat at 2.5 mg/kg, iv up to 24 hrs by LC-MS analysis by LC-MS analysis; format: ADME, organism-based; conditions: blood and plasma
[49] = Clearance in Sprague-Dawley rat blood at 2.5 mg/kg, iv up to 24 hrs by LC-MS analysis; format: ADME, organism-based; conditions: whole blood
[50] = Volume of distribution at steady state in Sprague-Dawley rat blood at 2.5 mg/kg, iv up to 24 hrs by LC-MS analysis; format: ADME, organism-based; conditions: whole blood, read-out: Vdss
[51] = Drug excretion in Sprague-Dawley rat urine at 2.5 mg/kg, iv up to 24 hrs by LC-MS analysis; format: ADME, organism-based; conditions: read-out: Drug excretion
[52] = Clearance in Sprague-Dawley rat renal blood at 2.5 mg/kg, iv up to 24 hrs by LC-MS analysis; format: ADME, organism-based; conditions: whole blood
[53] = Drug metabolism in Sprague-Dawley rat assessed amiloride formation at 2.5 mg/kg, iv after 4.8 mins by LC-MS analysis; format: ADME, organism-based; conditions: in vivo, 0.08 h

SMILES	IC50 [18]	IC50 [19]	logD [20]	CL free [21]	CL free [22]	Stabilty [23]	IC50 (cells)	bioavailability at 24 h (in vivo)	solubility kinetic (physchem [24])	solubility kinetic (physchem [25])	half-life at 1 h, 1 µM (in vitro [26])	microsomal CLint at 1 h, 1 µM (in vitro [27])	half-life at 1 h, 1 µM (in vitro [28])	microsomal CLint at 1 h, 1 µM (in vitro [29])	fraction unbound at […], 1 ug/ml (in vitro [30])	metabolised at 4 h, 1 ug/ml (in vitro [31])	recovery at 2 h, 20 µM (in vitro [32])	recovery at 2 h, 20 µM (in vitro [33])	Papp A→B at 2 h, 20 µM (in vitro [34])	Papp B→A at 2 h, 20 µM (in vitro [35])	other results
N=C(N)NC(=O)c1nc(-c2cc3ccccc3o2)c(N2CCCCCC2)nc1N	< 3 µM	< 3 µM	5.1	888 µL/min/mg	888 µL/min/mg	Unstable	< 3 µM	< 5%	12.5 µg/mL (≈ 31.8 µM)	1.6 µg/mL (≈ 4.07 µM)	1.13 h	26 µL/min/mg	0.4 h	73 µL/min/mg	0.02	< 6%	29%	76%	0.3 ×10⁻⁶ cm/s	12 ×10⁻⁶ cm/s	half-life [1]: 1.7 h; clearance [2]: 71 mL/min/kg; Vd [3]: 2.3 L/kg; AUC(0-inf) [4]: 1.6 µM·h; blood plasma ratio at 24 h [5]: 1.4; clearance [6]: 53 mL/min/kg; Vd [7]: 1.7 L/kg; half-life [8]: 7 h; clearance [9]: 56.9 mL/min/kg; Vd [10]: 12.4 L/kg; AUC(0-inf) [11]: 2.9 µM·h; blood plasma ratio at 24 h [12]: 1.4; clearance [13]: 39.5 mL/min/kg; Vd [14]: 8.6 L/kg; dose excreted at 24 h [15]: 0.02%; CL renal at 24 h [16]: 0.01 mL/min/kg; Drug metabolism [17]: Metabolite_Notdetected; efflux ratio at 2 h, 20 µM (in vitro [36]): 40
N=C(N)NC(=O)c1nc(Cl)c(N2CCCCCC2)nc1N [N,N-HEXAMETHYLENEAMILORIDE]	3.3 µM	30 µM	3.8	74 µL/min/mg	2243 µL/min/mg	Unstable	8.3 µM	4.5%	> 100 µg/mL	50 µg/mL (≈ 160 µM)	1.22 h	24 µL/min/mg	0.04 h	726 µL/min/mg	0.03	< 6%	79%	100%	15 ×10⁻⁶ cm/s	56 ×10⁻⁶ cm/s	half-life [37]: 0.62 h; clearance [38]: 86 mL/min/kg; Vd [39]: 2 L/kg; AUC(0-inf) [40]: 1.5 µM·h; blood plasma ratio at 24 h [41]: 1.5; clearance [42]: 59 mL/min/kg; Vd [43]: 1.4 L/kg; half-life [44]: 3.2 h; clearance [45]: 83.5 mL/min/kg; Vd [46]: 5.3 L/kg; AUC(0-inf) [47]: 1.6 µM·h; blood plasma ratio at 24 h [48]: 1.8; clearance [49]: 46.2 mL/min/kg; Vd [50]: 2.9 L/kg; dose excreted at 24 h [51]: 0.5%; CL renal at 24 h [52]: 0.2 mL/min/kg; Drug metabolism [53]: Metabolite_Detected; efflux ratio at 2 h, 20 µM (in vitro [36]): 3.8
